The nature of data set [1]: Reducing power on the Somogyi-Nelson's method. In kind it is physicochemical.
Data set [2] relates to mice. The data set can be described thus: Acute toxicity test, oral administration. In kind it is in vivo. An excerpt:
Based on this, the LD50 of cyclotetrasaccharide was at least 50 g/kg mouse body weight, though the data were not so accurate.

Data set [3] has as its target T1, Amylopsin (Homo sapiens, UniProt P04746).
T1 sequence (P04746 16-511): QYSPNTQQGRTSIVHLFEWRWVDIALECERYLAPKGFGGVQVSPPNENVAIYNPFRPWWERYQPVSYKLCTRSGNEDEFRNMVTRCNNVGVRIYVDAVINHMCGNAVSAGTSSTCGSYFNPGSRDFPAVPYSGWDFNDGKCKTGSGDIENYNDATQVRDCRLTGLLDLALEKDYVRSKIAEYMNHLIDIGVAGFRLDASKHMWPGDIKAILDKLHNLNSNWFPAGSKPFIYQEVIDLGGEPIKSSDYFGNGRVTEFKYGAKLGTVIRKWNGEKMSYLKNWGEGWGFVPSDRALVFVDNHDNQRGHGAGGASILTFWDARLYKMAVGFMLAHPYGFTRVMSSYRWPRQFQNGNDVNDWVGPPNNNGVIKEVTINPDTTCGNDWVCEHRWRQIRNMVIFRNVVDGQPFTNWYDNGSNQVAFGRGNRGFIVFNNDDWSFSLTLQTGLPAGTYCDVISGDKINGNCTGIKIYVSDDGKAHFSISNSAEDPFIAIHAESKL

The nature of data set [4]: Amino carbonyl reaction with polypeptone. The format is physicochemical. The conditions noted are these: 10% (w/v) with 5% (w/v) polypeptone, 100° C., minus the control. The procedure: Four milliliters of the resulting solution were placed in a glass test tube, sealed, and heated at 100° C. for 30 to 90 min. After allowing to stand for cooling at ambient temperature, each of the resulting solutions was measured for coloration degree to examine on their amino carbonyl reactivity. In parallel, as a control, a solution with only polypeptone was provided and similarly treated as above. The coloration degree was evaluated based on the level of the absorbance, measured in a cell with 1-cm light pass at a wavelength of 480 nm, minus the control.

The subject of data set [5] is Lactobacillus acidophilus JCM 1132. As to the kind of experiment: Assimilation test, Lactobacillus acidophilus. The format is cell-based. The conditions noted are these: PYF medium with 0.5% saccharide, 37° C., four days, anaerobic.
Data set [6] can be described thus: Saturation concentration of cyclotetrasaccharide in water. The format is physicochemical. From the text:
Each resulting saturated solution of cyclotetrasaccharide was membrane filtered to remove undissolved cyclotetrasaccharide, and each filtrate was then examined for moisture content by the drying loss method to determine a saturation concentration of cyclotetrasaccharide at respective temperatures.

The test system of data set [7] is Bifidobacterium adolescentis JCM 1275. As to the kind of experiment: Assimilation test, Bifidobacterium adolescentis. The format is cell-based. The conditions noted are these: PYF medium with 0.5% saccharide, 37° C., four days, anaerobic.
The subject of data set [8] is Small intestinal mucosal enzyme. As to the kind of experiment: Digestion test in vitro, small intestinal mucosal enzyme.
In data set [9] the test system is α-isomaltosylglucosaccharide-forming enzyme. As to the kind of experiment: Transfer-acceptor specificity, Enzyme of Strain C11. In kind it is biochemical, Bacillus globisporus C11. The conditions noted are these: acceptor 1.6%, PINE-DEX #100 donor 4%, one unit/g donor, 30° C., pH 6.0, 24 hours.

As for `OCC1OC2OCC3O[C@H](O[C@H]4C(O)C(CO)OC(OCC5O[C@H](O[C@@H](C1O)C2O)C(O)C(O)[C@@H]5O)C4O)C(O)C(O)[C@@H]3O` (stereo partly drawn) [Cyclotetrasaccharide, cyclo{→6)-α-D-glucopyranosyl-(1→3)-α-D-glucopyranosyl-(1→6)-α-D-glucopyranosyl-(1→3)-α-D-glucopyransoyl-(1→}], the reducing power entry in data set [1] is “below a detectable level”. For the same compound, in data set [2] (highest possible dose), the death of mice result was “did not induce death of mice”. Moreover, the LD50 entry in [2] (mice, data not so accurate) is given as “at least 50 g/kg mouse body weight”. Further, the “Decomposition percentage (%) by digestive enzyme” value in [3] came to 0.0%. For the same compound, the “Coloration degree (A480 nm)” value in [4] (heating time 0 min), in data set [4] (heating time 30 min), in data set [4] (heating time 60 min) and in data set [4] (heating time 90 min) was 0.00 A480 nm each time. Besides, the Assimilability result in data set [5] and in data set [7] was “− (judged negative (−) when the post culture had a pH of 6.0 or higher)” each time. Moreover, the “Saturation concentration (%)” value came out at 30.3% in [6] (10° C.); 34.2% in data set [6] (30° C.); 42.6% in [6] (50° C.); 53.0% in [6] (70° C.); 70.5% in [6] (90° C.).

With `OC[C@@H](O)[C@@H](O[C@H]1O[C@H](CO)[C@@H](O)[C@H](O)[C@H]1O)[C@H](O)[C@@H](O)CO` [Maltitol, reference compound], the “Decomposition percentage (%) by digestive enzyme” value in [8] is 4.0%. In data set [9], the “Product of transferring reaction, Enzyme of Strain C11” value is recorded as “++ (a saccharide-transferred product was detected in an amount over ten percent through transfer reaction to acceptor)”.

The values above are taken from patent US7811797B2, “α-isomaltosylglucosaccharide-forming enzyme, process and uses of the same” (Kabushiki Kaisha Hayashibara Seibutsu Kagaku Kenkyujo, priority 2000, dated 2010).
